Experimental data reported in patent US20240325531A1, “CAR T/NK-CELLS FOR USE IN THE TREATMENT OF INVASIVE FUNGAL INFECTIONS” (UNIVERSITAT DE BARCELONA, priority 2021, published 2024).

Columns and labels:
Fusarium petroliphilum [1] = test: Antifungal resistance tests (MIC) on the patient's mold; format: cell-based; settings: Fusarium petroliphilum from the patient's skin biopsy; no clinical breakpoints established; read-out: minimum inhibitory concentrations (MIC)
Method: The patient was admitted to the hospital for fever, muscle pain, and polytopic erythematous plaques/nodules on the trunk and extremities, some of them with central pustules. […] Blood cultures were negative. Galactomannan and β-D-glucan were negative. […] Bronchoscopy was performed but all results were negative.

Fusarium petroliphilum [2] = test: Treatment of a patient with fusariosis (compassionate, first-in-human use); format: in vivo; settings: one patient; liposomal amphotericin-B, terbinafine and voriconazole given together, before cell therapy
Method: Since admission, liposomal amphotericin-B was initiated and after fusariosis diagnosis, terbinafine and voriconazole were added.

[3] = system: acute panmyelosis with myelofibrosis; test: Patient's earlier treatment of relapsed haematological disease; format: in vivo, human; settings: venetoclax plus azacytidine, after the first two cycles, one patient

SMILES	MIC (Fusarium petroliphilum [1]) [µg/mL]	clinical course under antifungal drugs (Fusarium petroliphilum [2])	response of haematological disease [3]
C[C@@H](c1nc(-c2ccc(C#N)cc2)cs1)[C@](O)(Cn1cncn1)c1cc(F)ccc1F [isavuconazole]	> 8	–	–
C[C@@H](c1ncncc1F)[C@](O)(Cn1cncn1)c1ccc(F)cc1F [voriconazole]	> 8	remained febrile, with appearance of new skin lesions and mild worsening of the chest CT images	–
CN(C/C=C/C#CC(C)(C)C)Cc1cccc2ccccc12 [terbinafine]	–	remained febrile, with appearance of new skin lesions and mild worsening of the chest CT images	–
Nc1ncn([C@@H]2O[C@H](CO)[C@@H](O)[C@H]2O)c(=O)n1 [azacytidine]	–	–	partial response
CC[C@@H]([C@H](C)O)n1ncn(-c2ccc(N3CCN(c4ccc(OC[C@@H]5CO[C@@](Cn6cncn6)(c6ccc(F)cc6F)C5)cc4)CC3)cc2)c1=O [posaconazole]	> 8	–	–
